Our source for the change in vivo and EC50 values is patent US8796256B2 (Janssen Pharmaceutica NV, priority 2010, dated 2014).

Read-outs that look alike come from different tables or passages of the source.

One assay relates to Zucker fa/fa male rats. In words: Zucker fa/fa Rat Model Assay. As to conditions: po, 120 h, 10 mg/kg orally once a day for 4 days. Format: in vivo. The text has this:
Zucker fa/fa is a monogenic model of frank diabetes due to a mutation on the fa gene truncating the leptin receptor and preventing its interaction with its peptide hormone. This mutation results in a hyperphagic phenotype and the rodent develops obesity, hyperlipidemia, fasting hyperglycemia and insulin resistance. Zucker fa/fa male rats were received at four weeks of age and allowed to acclimate for one week. At five weeks of age the animals were single housed in cages in a temperature-controlled room with 12-hour light/dark cycle. The rats were allowed ad libitum access to water and food and throughout the study were maintained on a Purina 5008 diet. Animals were sorted based primarily on fed insulin levels and circulating triglycerides. Animals were dosed orally once a day (10 mg/kg) in the morning for 4 days. The vehicle used was either 20% HPβCD (Hydroxypropyl Beta Cyclodextrin) or 15% Vitamin E/30% PEG-400 (Polyethylene Glycol 400). Fed insulin and triglycerides were measured using blood collected from the tail vein at day 5. Serum plasma samples were prepared by centrifugation in EDTA (Ethylenediaminetetraacetic acid) containing tubes, transferred into 96 well plates and stored at −80° C.

Assay [1] concerns the target T1, ERR1 (also known as ERR-α or ERR-1) (Homo sapiens, UniProt P11474).
T1 sequence (P11474 193-421 limits assumed): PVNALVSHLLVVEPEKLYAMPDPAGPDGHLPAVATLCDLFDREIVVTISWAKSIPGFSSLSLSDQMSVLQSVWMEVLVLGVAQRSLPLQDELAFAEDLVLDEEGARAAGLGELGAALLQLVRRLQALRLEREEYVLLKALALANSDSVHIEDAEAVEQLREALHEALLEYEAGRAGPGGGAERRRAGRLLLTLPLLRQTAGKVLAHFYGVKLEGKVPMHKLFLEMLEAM
In words: TR-FRET assay (disruption of co-activator peptide binding to ERR1 LBD). The conditions noted are these: 6 nM 6His-ERR1LBD, 6 nM GST-SRC-2 peptide; average of 3 independent experiments. Format: biochemical. Put shortly: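 Homogeneous TR-FRET measuring displacement of GST-hSRC2 co-activator peptide (6 nM) from His-tagged ERR1 LBD (6 nM), detected with α-GST Eu cryptate (30 nM) and α-His-XL665 (7.5 nM). Buffer 25 mM Tris pH 8, 2.5 mM Hepes, 20 mM KCl, 1 mM DTT, 0.05 mg/mL delipidated BSA; equilibration 4-18 h at 25° C. Hyperbolic dose-response fit, mean of 3 experiments.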
(In TR-FRET formats the signal depends on donor and acceptor labels being close together.)

The mark [2] stands for this setting: blood from tail vein at day 5, read-out: % Change Fed Insulin Levels.
Where [3] appears, read: blood from tail vein at day 5, read-out: % Change Fed Triglyceride Levels.

As to `O=C(CN1C(=O)S/C(=C\c2ccc3c(cnn3Cc3ccc(Cl)cc3C(F)(F)F)c2)C1=O)NS(=O)(=O)N1CCCC1` [Compound 38, 2-[(5Z)-5-({1-[4-Chloro-2-(trifluoromethyl)benzyl]-1H-indazol-5-yl}methylidene)-2,4-dioxo-1,3-thiazolidin-3-yl]-N-(pyrrolidin-1-ylsulfonyl)acetamide], the change in vivo at 10 mg/kg in the assay on Zucker fa/fa male rats (setting [2]) is -47%; in the assay on Zucker fa/fa male rats (setting [3]), 1%. The compound further registered an EC50 in assay [1] of 0.025 µM.
The like results for `N=C(N)NOCCN1C(=O)S/C(=C\c2ccc3c(cnn3Cc3ccc(Cl)cc3C(F)(F)F)c2)C1=O` [Compound 91, 1-{2-[(5Z)-5-({1-[4-Chloro-2-(trifluoromethyl)benzyl]-1H-indazol-5-yl}methylidene)-2,4-dioxo-1,3-thiazolidin-3-yl]ethoxy}guanidine] were, in that order, -68%, -60% and 0.058 µM.
Take `O=C1CN(CCN2C(=O)S/C(=C\c3ccc4c(cnn4Cc4ccc(Cl)cc4C(F)(F)F)c3)C2=O)CCN1` [Compound 79, (5Z)-5-({1-[4-Chloro-2-(trifluoromethyl)benzyl]-1H-indazol-5-yl}methylidene)-3-[2-(3-oxopiperazin-1-yl)ethyl]-1,3-thiazolidine-2,4-dione]: the change in vivo at 10 mg/kg in the assay on Zucker fa/fa male rats (setting [2]) is -20%; in the assay on Zucker fa/fa male rats (setting [3]) it was 34%. In assay [1], this compound yielded an EC50 of 0.03 µM.
For `C[C@H](N)CN1C(=O)S/C(=C\c2ccc3c(cnn3Cc3ccc(Cl)cc3C(F)(F)F)c2)C1=O` [Compound 155, 3-[(2S)-2-Aminopropyl]-(5Z)-5-({1-[4-chloro-2-(trifluoromethyl)benzyl]-1H-indazol-5-yl}methylidene)-1,3-thiazolidine-2,4-dione], the change in vivo at 10 mg/kg in the assay with Zucker fa/fa male rats (setting [2]) was -60%; in the assay on Zucker fa/fa male rats (setting [3]) it was -55%. Also, a half-maximal response in assay [1] (EC50) required 0.024 µM.
Consider `O=C(O)CN1CCC(N2C(=O)S/C(=C\c3ccc4c(cnn4Cc4ccc(Cl)cc4C(F)(F)F)c3)C2=O)CC1` [Compound 146, {4-[(5Z)-5-({1-[4-Chloro-2-(trifluoromethyl)benzyl]-1H-indazol-5-yl}methylidene)-2,4-dioxo-1,3-thiazolidin-3-yl]piperidin-1-yl}acetic acid], for which the results for the change in vivo at 10 mg/kg in the assay with Zucker fa/fa male rats (setting [2]) and in the assay on Zucker fa/fa male rats (setting [3]) were -26% and -14%, respectively. The compound also had an EC50 in assay [1] of 0.016 µM.
`O=C(O)CN1C(=O)S/C(=C\c2ccc3c(cnn3Cc3ccc(C(F)(F)F)cc3C(F)(F)F)c2)C1=O` [Compound 59, [(5Z)-5-({1-[2,4-Bis(trifluoromethyl)benzyl]-1H-indazol-5-yl}methylidene)-2,4-dioxo-1,3-thiazolidin-3-yl]acetic acid]: the change in vivo at 10 mg/kg in the assay on Zucker fa/fa male rats (setting [2]) was -23%; with Zucker fa/fa male rats (setting [3]), -25%. Besides, a half-maximal effect in assay [1] (EC50) was put at 0.026 µM.
In the case of `CC(=O)NCCN1C(=O)S/C(=C\c2ccc3c(cnn3Cc3ccc(Cl)cc3C(F)(F)F)c2)C1=O` [Compound 389, N-{2-[(5Z)-5-({1-[4-Chloro-2-(trifluoromethyl)benzyl]-1H-indazol-5-yl}methylidene)-2,4-dioxo-1,3-thiazolidin-3-yl]ethyl}acetamide], the EC50 in assay [1] came out at 0.026 µM.
Compound `O=C1S/C(=C\c2ccc3c(cnn3Cc3ccc(Cl)cc3C(F)(F)F)c2)C(=O)N1C[C@@H]1CN(CCO)CCO1` [Compound 187, (5Z)-5-({1-[4-Chloro-2-(trifluoromethyl)benzyl]-1H-indazol-5-yl}methylidene)-3-{[(2S)-4-(2-hydroxyethyl)morpholin-2-yl]methyl}-1,3-thiazolidine-2,4-dione] came in with an EC50 in assay [1] of 0.027 µM.
`O=C1S/C(=C\c2ccc3c(cnn3Cc3ccc(Cl)cc3C(F)(F)F)c2)C(=O)N1C[C@H](O)CNCCF` [Compound 295, (5Z)-5-({1-[4-Chloro-2-(trifluoromethyl)benzyl]-1H-indazol-5-yl}methylidene)-3-{(2R)-3-[(2-fluoroethyl)amino]-2-hydroxypropyl}-1,3-thiazolidine-2,4-dione] registered an EC50 in assay [1] of 0.066 µM.
The compound `CN(C)CCN1C(=O)S/C(=C\c2ccc3c(ccn3Cc3ccc(C(F)(F)F)cc3C(F)(F)F)c2)C1=O` [Compound 240, (5Z)-5-[(1-{[2,4-Bis(trifluoromethyl)-phenyl]methyl}-1H-indol-5-yl)methylidene]-3-[2-(dimethylamino)ethyl]-1,3-thiazolidine-2,4-dione] yielded an EC50 in assay [1] of 0.07 µM.
As to `O=C1S/C(=C\c2ccc3c(cnn3Cc3ccc(Cl)cc3C(F)(F)F)c2)C(=O)N1CCNc1ccc([N+](=O)[O-])cn1` [Compound 110, (5Z)-5-({1-[4-Chloro-2-(trifluoromethyl)benzyl]-1H-indazol-5-yl}methylidene)-3-{2-[(5-nitropyridin-2-yl)amino]ethyl}-1,3-thiazolidine-2,4-dione], a half-maximal response in assay [1] (EC50) required 0.438 µM. Compared with the last compound, the EC50 is about 6.3-fold higher.
In turn, `Cn1cncc1CN1C(=O)S/C(=C\c2ccc3c(cnn3Cc3ccc(Cl)cc3C(F)(F)F)c2)C1=O` [Compound 139, (5Z)-5-({1-[4-Chloro-2-(trifluoromethyl)benzyl]-1H-indazol-5-yl}methylidene)-3-[(1-methyl-1H-imidazol-5-yl)methyl]-1,3-thiazolidine-2,4-dione] returned a concentration for a half-maximal effect (EC50) in assay [1] of 0.016 µM.
Take `O=C1S/C(=C\c2ccc3c(cnn3Cc3ccc(Cl)cc3C(F)(F)F)c2)C(=O)N1CCN1CCN[C@@H](CO)C1` [Compound 282, (5Z)-5-({1-[4-Chloro-2-(trifluoromethyl)benzyl]-1H-indazol-5-yl}methylidene)-3-{2-[(3R)-3-(hydroxymethyl)piperazin-1-yl]ethyl}-1,3-thiazolidine-2,4-dione]: the EC50 in assay [1] amounted to 0.361 µM. Against the preceding compound, the EC50 is about 23-fold higher.
As to `O=C1S/C(=C\c2ccc3c(cnn3Cc3ccc(Cl)cc3C(F)(F)F)c2)C(=O)N1Cc1nccn1S(=O)(=O)C(F)(F)F` [Compound 411, (5Z)-5-({1-[4-Chloro-2-(trifluoromethyl)benzyl]-1H-indazol-5-yl}methylidene)-3-({1-[(trifluoromethyl)sulfonyl]-1H-imidazol-2-yl}methyl)-1,3-thiazolidine-2,4-dione], in assay [1], the EC50 stood at 0.029 µM.
In turn, `O=C1S/C(=C\c2ccc3c(cnn3Cc3ccc(Cl)cc3C(F)(F)F)c2)C(=O)N1Cc1ccccn1` [Compound 137, (5Z)-5-({1-[4-Chloro-2-(trifluoromethyl)benzyl]-1H-indazol-5-yl}methylidene)-3-(pyridin-2-ylmethyl)-1,3-thiazolidine-2,4-dione] displayed an EC50 in assay [1] of 0.066 µM.
`O=C(O)c1cccc(CN2C(=O)S/C(=C\c3ccc4c(cnn4Cc4ccc(Cl)cc4C(F)(F)F)c3)C2=O)c1` [Compound 378, 3-{[(5Z)-5-({1-[4-Chloro-2-(trifluoromethyl)benzyl]-1H-indazol-5-yl}methylidene)-2,4-dioxo-1,3-thiazolidin-3-yl]methyl}benzoic acid] showed an EC50 in assay [1] of 0.066 µM.
As for `O=C1S/C(=C\c2ccc3c(cnn3Cc3ccc(Cl)cc3C(F)(F)F)c2)C(=O)N1C[C@@H]1COCCN1` [Compound 198, (5Z)-5-({1-[4-Chloro-2-(trifluoromethyl)benzyl]-1H-indazol-5-yl}methylidene)-3-[(3R)-morpholin-3-ylmethyl]-1,3-thiazolidine-2,4-dione], the EC50 in assay [1] stood at 0.031 µM. Compared with the last compound, the EC50 is about 2.1-fold lower.
Take `O=C(O)CN1C(=O)S/C(=C\c2ccc3c(cnn3[C@H]3CCc4cc(Cl)ccc43)c2)C1=O` [Compound 173, [(5Z)-5-({1-[(1S)-5-Chloro-2,3-dihydro-1H-inden-1-yl]-1H-indazol-5-yl}methylidene)-2,4-dioxo-1,3-thiazolidin-3-yl]acetic acid]: in assay [1], the EC50 amounted to 0.07 µM.
Turning to `O=C1S/C(=C\c2ccc3c(cnn3Cc3ccc(Cl)cc3C(F)(F)F)c2)C(=O)N1C1(C(=O)O)CC1` [Compound 89, 1-[(5Z)-5-({1-[4-Chloro-2-(trifluoromethyl)benzyl]-1H-indazol-5-yl}methylidene)-2,4-dioxo-1,3-thiazolidin-3-yl]cyclopropanecarboxylic acid], the EC50 in assay [1] is 0.092 µM.
The same measure, in the same setting: the value for `C[C@H](N)CN1C(=O)S/C(=C\c2ccc3c(cnn3Cc3ccc(C(F)(F)F)cc3C(F)(F)F)c2)C1=O` [Compound 81, (5Z)-3-[(2S)-2-Aminopropyl]-5-({1-[2,4-bis(trifluoromethyl)benzyl]-1H-indazol-5-yl}methylidene)-1,3-thiazolidine-2,4-dione] was 0.051 µM.
Same read-out and setting: next, `C[C@@H](CN1C(=O)S/C(=C\c2ccc3c(cnn3Cc3ccc(Cl)cc3C(F)(F)F)c2)C1=O)NS(C)(=O)=O` [Compound 157, N-{(1S)-2-[(5Z)-5-({1-[4-Chloro-2-(trifluoromethyl)benzyl]-1H-indazol-5-yl}methylidene)-2,4-dioxo-1,3-thiazolidin-3-yl]-1-methylethyl} methanesulfonamide]: 0.023 µM.

By EC50 is commonly meant the midpoint of the concentration-response curve. High values mean a less potent agent, low ones a more potent agent.
